In article PMC10004090, “Novel Arylsulfonylhydrazones as Breast Anticancer Agents Discovered by Quantitative Structure-Activity Relationships” (Molecules, 2023):
Like-named read-outs stand apart in the source and are kept apart here.

Columns and labels:
MDA-MB-231 = assay: MTT cytotoxicity test on MDA-MB-231 cell line; assay type: cell-based, human; conditions: for IC50: MTT, 72 h; for MDA-MB-231 SI: selectivity index = IC50 on Neuro-2a/IC50 on MDA-MB-231; for LE MDA-MB-231 Exp: LE = pIC50/N from MTT IC50, 72 h
Experimental: (§1) The anticancer activity of the novel arylsulfonylhydrazones was tested on two BC cell lines: MCF-7 and MDA-MB-231. The cell line MCF-7 originates from human breast adenocarcinoma and expresses estrogen receptor alpha (ER-α), while the cell line MDA-MB-231 represents TNBC adenocarcinoma and lacks any receptor [40]. To test the cytotoxicity of the compounds on healthy cells, they were incubated within Neuro-2a cells, which are mouse neuroblasts isolated from brain tissue.
(§2) The in vitro antineoplastic activity of the newly synthesized compounds was evaluated against human BC cell lines of different molecular types: the triple negative MDA-MB-231 cell line and the ER/PR/Her2 positive variant MCF-7, as well as against mouse neuroblast cells, Neuro-2a. All cell lines were purchased from the German Collection of Microorganisms and Cell Cultures (DSMZ GmbH, Braunschweig, Germany) and cultivated according to supplier’s instructions. Cells were cultured in an RPMI 1640 growth medium supplemented with 10% fetal bovine serum (FBS) and 5% L-glutamine, and incubated under standard conditions of 37 °C and 5% humidified CO2 atmosphere.
(§3) The cytostatic activity of the experimental compounds was investigated using an established methodology for assessing cell viability known as the Mosmann MTT method. The assay is colorimetric and measures the activity of mitochondrial enzymes by reducing the yellow dye MTT (3-(4,5-dimethylthiazol-2-yl)-2,5-diphenyltetrazolium bromide) to violet formazan crystals. Exponential-phased cells were harvested and seeded (100 μL/well) in 96-well plates at 1.5 × 10^5 density and incubated for 24 h. Cell cultures were treated and exposed to various concentrations (200–6.25 μM) of the tested compounds for 72 h, following which cell survival was quantified as percentage (%) relative to untreated control (100% cell viability).
(§4) Experimental data were processed using nonlinear regression analysis in the GraphPad Prism® software program. Semi-logarithmic “dose-response” curves were plotted and half-inhibitory concentrations (IC50) of the screened compounds were calculated for each of the tested tumor cell lines.

MCF-7 [1] = assay: MTT cytotoxicity test on MCF-7 cell line; assay type: cell-based, human; conditions: for IC50: MTT, 72 h; for MCF-7 SI: selectivity index = IC50 on Neuro-2a/IC50 on MCF-7
Experimental: as §1, §2, §3, §4

MCF-7 [2] = conditions: ligand efficiency LE = pIC50/N; training set 3a–o and cisplatin; cited from earlier work
MCF-7 [3] = conditions: ligand efficiency LE = pIC50/N; training set 5a–k and doxorubicin; cited from earlier work
MDA-MB-468 = conditions: ligand efficiency LE = pIC50/N; training set 5a–k and doxorubicin; cited from earlier work
Neuro-2a = assay: MTT cytotoxicity test on Neuro-2a cells (healthy-cell control); assay type: cell-based, mouse; conditions: for IC50: MTT, 72 h, healthy cells
Experimental: as §1, §2, §3, §4

Compound: O=S(=O)(N/N=C/c1ccc(Cl)cc1)c1ccccc1 [Compound 1h, N’-[(E)-(4-chlorophenyl)methylidene]benzenesulfonohydrazide]
- IC50 (MDA-MB-231; Homo sapiens, MDA-MB-231): 63.1 ± 6.9 µM
- MDA-MB-231 SI (MDA-MB-231): 1.861
- IC50 (MCF-7 [1]; Homo sapiens, MCF7): 157 ± 11.2 µM
- MCF-7 SI (MCF-7 [1]): 0.747

Compound: Cc1ccc(S(=O)(=O)N/N=C\c2c(C)cccc2Cl)cc1 [Compound 3l]
- LE MCF-7 (MCF-7 [2]): 0.180

Compound: Cc1ccc(S(=O)(=O)N/N=C\c2cc(-c3ccccc3)cs2)cc1 [Compound 3c]
- LE MCF-7 (MCF-7 [2]): 0.189

Compound: Cc1ccc(S(=O)(=O)N/N=C\c2ccc(F)c(Oc3ccccc3)c2)cc1 [Compound 3d]
- LE MCF-7 (MCF-7 [2]): 0.121

Compound: Cc1ccc(S(=O)(=O)N/N=C\c2c[nH]nc2-c2ccccc2)cc1 [Compound 3h]
- LE MCF-7 (MCF-7 [2]): 0.141

Compound: O=S(=O)(N/N=C\c1cn(CCN2CCOCC2)c2ccccc12)c1ccccc1 [Compound 5c]
- LE MCF-7 (MCF-7 [3]): 0.143
- LE MDA-MB-468 (MDA-MB-468): 0.149

Compound: Cc1ccc(S(=O)(=O)N/N=C\c2cccn2C)cc1 [Compound 3n]
- LE MCF-7 (MCF-7 [2]): 0.207

Compound: Cc1ccc(S(=O)(=O)N/N=C\c2cn(CCN3CCOCC3)c3ccccc23)cc1 [Compound 5b]
- LE MCF-7 (MCF-7 [3]): 0.140
- LE MDA-MB-468 (MDA-MB-468): 0.146

Compound: O=S(=O)(N/N=C\c1cn(CCN2CCOCC2)c2ccccc12)c1ccc2ccccc2c1 [Compound 5h]
- LE MCF-7 (MCF-7 [3]): 0.116
- LE MDA-MB-468 (MDA-MB-468): 0.110

Compound: O=[N+]([O-])c1ccc(S(=O)(=O)N/N=C\c2cn(CCN3CCOCC3)c3ccccc23)cc1 [Compound 5e]
- LE MCF-7 (MCF-7 [3]): 0.128
- LE MDA-MB-468 (MDA-MB-468): 0.138

Compound: Cc1ccc(S(=O)(=O)N/N=C\c2ccccc2OC(F)(F)F)cc1 [Compound 3o]
- LE MCF-7 (MCF-7 [2]): 0.166

Compound: Cc1ccc(S(=O)(=O)N/N=C\c2ccc3c(c2)OC(F)(F)O3)cc1 [Compound 3a]
- LE MCF-7 (MCF-7 [2]): 0.174

Compound: O=S(=O)(N/N=C\c1cn(CCN2CCOCC2)c2ccccc12)c1ccc(F)cc1 [Compound 5d]
- LE MCF-7 (MCF-7 [3]): 0.150
- LE MDA-MB-468 (MDA-MB-468): 0.161

Compound: COc1cc(/C=N\NS(=O)(=O)c2ccc(C)cc2)ccc1F [Compound 3f]
- LE MCF-7 (MCF-7 [2]): 0.207

Compound: COc1ccc2[nH]cc(/C=N\NS(=O)(=O)c3ccccc3)c2c1 [Compound 1a, N’-[(Z)-(5-methoxy-1H-indol-3-yl)methylidene]benzenesulfonohydrazide]
- IC50 (Neuro-2a; Mus musculus, N2a): 5.2 ± 0.9 µM
- IC50 (MDA-MB-231; Homo sapiens, MDA-MB-231, 72 h): 3.1 ± 0.7 µM
- IC50 (MCF-7 [1]; Homo sapiens, MCF7, 72 h): < 1 µM
- IC50 (MCF-7 [1]): 0.6 ± 0.2 µM

Compound: COc1ccc(/C=N\NS(=O)(=O)c2ccc(C)cc2)cc1[N+](=O)[O-] [Compound 3g]
- LE MCF-7 (MCF-7 [2]): 0.143

Compound: Cc1ccc(S(=O)(=O)N/N=C\c2cc(Br)cs2)cc1 [Compound 3b]
- LE MCF-7 (MCF-7 [2]): 0.203

Compound: Cc1ccc(S(=O)(=O)N/N=C\c2ccc(F)cc2C(F)(F)F)cc1 [Compound 3j]
- LE MCF-7 (MCF-7 [2]): 0.148

Compound: O=S(=O)(N/N=C\c1cn(CCN2CCOCC2)c2ccccc12)c1ccc(Cl)cc1 [Compound 5f]
- LE MCF-7 (MCF-7 [3]): 0.163
- LE MDA-MB-468 (MDA-MB-468): 0.170

Compound: CC(=O)n1cc(/C=N/NS(=O)(=O)c2ccccc2)c2ccccc21 [Compound 1c, N’-[(E)-(1-acetyl-1H-indol-3-yl)methylidene]benzenesulfonohydrazide]
- melting point: 209 to 210 °C
- IC50 (Neuro-2a; Mus musculus, N2a): 36.2 ± 4.3 µM
- IC50 (MDA-MB-231; Homo sapiens, MDA-MB-231, 72 h): 19.2 ± 3.4 µM
- IC50 (MCF-7 [1]; Homo sapiens, MCF7, 72 h): < 1 µM
- IC50 (MCF-7 [1]): 0.9 ± 0.4 µM

Compound: COc1ccc(/C=N/NS(=O)(=O)c2ccc(C)cc2)cc1OC [Compound 1g, N’-[(E)-(3,4-dimethoxyphenyl)methylidene]-4-methylbenzenesulfonohydrazide]
- IC50 (MDA-MB-231; Homo sapiens, MDA-MB-231): > 500 µM
- IC50 (MCF-7 [1]; Homo sapiens, MCF7): 56.1 ± 8.4 µM
- MCF-7 SI (MCF-7 [1]): 2.415

Compound: N’-[(E)-(5-methoxy-1-methyl-1H-indol-3-yl)methylidene]benzenesulfonohydrazide [Compound 1i]
- Neuro-2a LE (Neuro-2a; LE = pIC50/N): 0.161
- IC50 (Neuro-2a): 135 ± 10.9 µM
- LE MDA-MB-231 Exp (MDA-MB-231): 0.178
- IC50 (MDA-MB-231): 54.8 ± 7.4 µM
- MDA-MB-231 SI (MDA-MB-231): 2.462
- LE MCF-7 Exp (MCF-7 [1]; LE = pIC50/N from MTT IC50, 72 h): 0.158
- IC50 (MCF-7 [1]): 165 ± 8.6 µM
- MCF-7 SI (MCF-7 [1]): 0.818

Compound: COc1ccc(S(=O)(=O)N/N=C\c2cn(CCN3CCOCC3)c3ccccc23)cc1 [Compound 5a]
- LE MCF-7 (MCF-7 [3]): 0.136
- LE MDA-MB-468 (MDA-MB-468): 0.141

Compound: COc1ccc2[nH]cc(/C=N/NS(=O)(=O)c3ccc(C)cc3)c2c1 [Compound 1b, N’-[(E)-(5-methoxy-1H-indol-3-yl)methylidene]-4-methylbenzenesulfonohydrazide]
- melting point: 201 to 202 °C
- IC50 (Neuro-2a; Mus musculus, N2a): 4 ± 0.4 µM
- IC50 (MDA-MB-231; Homo sapiens, MDA-MB-231, 72 h): 8.5 ± 2.1 µM
- IC50 (MCF-7 [1]; Homo sapiens, MCF7, 72 h): < 1 µM
- IC50 (MCF-7 [1]): 0.8 ± 0.3 µM
- MCF-7 SI (MCF-7 [1]): 5.000

Compound: COc1cccc2c1C(=O)c1c(O)c3c(c(O)c1C2=O)C[C@@](O)(C(=O)CO)C[C@@H]3O[C@H]1C[C@H](N)[C@H](O)[C@H](C)O1 [Doxorubicin]
- LE MCF-7 (MCF-7 [3]): 0.185
- LE MDA-MB-468 (MDA-MB-468): 0.182

Compound: O=S(=O)(N/N=C/c1c[nH]c2ccc(Cl)cc12)c1ccccc1 [Compound 1e, N’-[(E)-(5-chloro-1H-indol-3-yl)methylidene]benzenesulfonohydrazide]
- IC50 (Neuro-2a; Mus musculus, N2a): 6.5 ± 1.1 µM
- IC50 (MDA-MB-231; Homo sapiens, MDA-MB-231, 72 h): < 1 µM
- IC50 (MDA-MB-231): 0.9 ± 0.2 µM
- IC50 (MCF-7 [1]; Homo sapiens, MCF7, 72 h): < 1 µM
- IC50 (MCF-7 [1]): 0.5 ± 0.1 µM
- MCF-7 SI (MCF-7 [1]): 13

Compound: N.N.[Cl][Pt][Cl] [Cisplatin, reference compound]
- LE MCF-7 (MCF-7 [2]): 0.931
- LE MDA-MB-231 Exp (MDA-MB-231): 0.840
- IC50 (MDA-MB-231): 63.4 ± 7.2 µM
- IC50 (MCF-7 [1]): 50.3 ± 6.5 µM

Compound: Cc1ccc(S(=O)(=O)N/N=C\c2cccc(Br)n2)cc1 [Compound 3m]
- LE MCF-7 (MCF-7 [2]): 0.176

Compound: COc1ccc(Br)cc1/C=N\NS(=O)(=O)c1ccc(C)cc1 [Compound 3i]
- LE MCF-7 (MCF-7 [2]): 0.170

Compound: COc1cccc(/C=N\NS(=O)(=O)c2ccc(C)cc2)c1Cl [Compound 3k]
- LE MCF-7 (MCF-7 [2]): 0.197

Compound: Cc1ccc(S(=O)(=O)N/N=C\c2cccc(C(F)(F)F)c2Cl)cc1 [Compound 3e]
- LE MCF-7 (MCF-7 [2]): 0.148

Compound: COc1ccc(/C=N/NS(=O)(=O)c2ccccc2)cc1OC [Compound 1f, N’-[(E)-(3,4-dimethoxyphenyl)methylidene]benzenesulfonohydrazide]
- IC50 (MDA-MB-231; Homo sapiens, MDA-MB-231): 266 ± 19.7 µM
- MDA-MB-231 SI (MDA-MB-231): 0.410
- IC50 (MCF-7 [1]; Homo sapiens, MCF7): 5.97 ± 2.1 µM

Compound: CC(=O)n1cc(/C=N/NS(=O)(=O)c2ccc(C)cc2)c2ccccc21 [Compound 1d, N’-[(E)-(1-acetyl-1H-indol-3-yl)methylidene]-4-methylbenzenesulfonohydrazide]
- IC50 (Neuro-2a; Mus musculus, N2a): 82.8 ± 8.1 µM
- IC50 (MDA-MB-231; Homo sapiens, MDA-MB-231, 72 h): 65.1 ± 6.1 µM
- MDA-MB-231 SI (MDA-MB-231): 1.272
- IC50 (MCF-7 [1]; Homo sapiens, MCF7, 72 h): 1.8 ± 0.6 µM
- MCF-7 SI (MCF-7 [1]): 46
